Results published in patent publication US20130023504A1, “Modulation of Prostaglandin/Cyclooxygenase Metabolic Pathways” (HUNTER-FLEMING LIMITED, priority 2006, published 2013).

Tested on: rat spinal cord motor neurones
Experiment: Neurite growth of spinal cord motor neurones in primary culture (anti β-Tubulin, In Cell Analyzer)
Format: cell-based
Method: Rat spinal motor neurones were prepared according to the method described by Martinou et al., 1992 (Martinou J C, Martinou I, Kato AC Cholinergic differentiation factor (CDF/LIF) promotes survival of isolated rat embryonic motoneurons in vitro. Neuron. 1992 April; 8(4):737-44). Briefly, pregnant female Wistar rats of 15 days gestation, were killed by cervical dislocation and the foetuses were removed from the uterus. Their spinal cords were removed and placed in ice-cold medium of Leibovitz (L15, Invitrogen, 11415-049) containing 1% of bovine serum albuminutes (BSA fatty acid free, Eurobio, Les Ulis, France, GXXBSA01-65). Meninges were carefully removed.
The spinal motor neurones were dissociated by trypsinisation for 20 minutes at 37° C. (trypsin EDTA 10× Invitrogen 15400054) diluted in PBS without calcium and magnesium (Invitrogen 2007-03). The reaction was stopped by the addition of Dulbecco Modified Eagle's Media (DMEM, Invitrogen 21969-035) containing DNase I grade II (0.1 mg/ml Roche diagnostic 104159) and 10% foetal calf serum (FCS, Invitrogen 10270098). The suspension was then mechanically dissociated by 3 passages through a 10 ml pipette. Cells were then centrifuged at 580 g for 10 minutes at room temperature. The pellet of dissociated cells was re-suspended in L15 medium and the resulting suspension was enriched in motor neurones by centrifugation at 180×g for 10 minutes at room temperature on a layer of BSA solution (3.5%) in L15 medium. The supernatant was discarded and the pellet was re-suspended in L15 medium supplemented with DNase I (1%). Then the suspension was layered over a cushion of Optiprep (d: 1.06 g/ml; Abcys, Paris, France; 1030061) and centrifuged at 335×g for 15 minutes at room temperature. The upper phase, containing the purified motor neurones, was collected, re-suspended with L15 medium and centrifuged at 800×g for 10 minutes at room temperature. The cell pellet was finally resuspended in a defined culture medium consisting of neurobasal medium supplemented with 2% B27, 2 mM L-Glutamine and Penicillin 50 Ul/ml-Streptomycin 50 μg/ml. Viable cells were counted in a Neubauer cytometer using the trypan blue exclusion test (Sigma T8154) then plated at 30 000 cells/well in 96 well-plates (pre-coated with poly-1-lysine; Nunclon, Invitrogen P5899) and cultured at 37° C. in a humidified air (95%) CO2 (5%) atmosphere.
The culture medium was changed into a defined culture medium after a 12 hours incubation period following the conditions described below:
BDNF 50 ng/ml and 10 ng/ml (in 0.1% DMSO)
After 6 hours, 12 hours and 24 hours of incubation with, cells were fixed for 5 minutes in an ethanol/acetic acid solution (95%/5%) at −20° C. and rinsed 3 times in PBS.
Motor neurones and sensory neurones were labelled by monoclonal anti β-Tubulin antibody (Sigma T8660) diluted at 1:400 in incubation solution (PBS with 5% of FCS and 0.1% of saponin, Sigma S-7900). This antibody specifically labels neurone cell bodies and neurites.
After 2 hours of incubation, the cells were washed in PBS and incubated with Alexa Fluor 488 goat anti mouse IgG (Molecular Probes A11001) diluted at 1:300 in incubation solution to reveal the 8-Tubulin III antibodies.
Analysis of the total length of neurones labelled with anti β-Tubulin antibodies (neurones) were carried out using In Cell Analyzer 1000 3.2.Workstation software.
The results were expressed in percentage compared to the vehicle. Comparison of groups was carried out using the unpaired T test.

CC12CCC3C(C1CCC2=O)[C@@H](O)C[C@H]1C[C@@H](O)CCC31C (stereo partly drawn) [Compound 7β-OH-EPIA, 7β-hydroxy-EPIAndrosterone]
Neurites length per field, % Vehicle (10^−4 M, 6 hours): 124%
Neurites length per field, Mean (10^−4 M, 6 hours): 315.9 μm
Neurites length per field, % Vehicle (10^−4 M, 12 hours): 142%
Neurites length per field, Mean (10^−4 M, 12 hours): 602.4 μm
Neurites length per field, % Vehicle (10^−4 M, 24 hours): 87%
Neurites length per field, Mean (10^−4 M, 24 hours): 188.4 μm
Neurites length per field, % Vehicle (10^−5 M, 6 hours): 115%
Neurites length per field, Mean (10^−5 M, 6 hours): 293.3 μm
Neurites length per field, % Vehicle (10^−5 M, 12 hours): 161%
Neurites length per field, Mean (10^−5 M, 12 hours): 680.9 μm
Neurites length per field, % Vehicle (10^−5 M, 24 hours): 93%
Neurites length per field, Mean (10^−5 M, 24 hours): 200.9 μm
Neurites length per field, % Vehicle (10^−6 M, 6 hours): 139%
Neurites length per field, Mean (10^−6 M, 6 hours): 354.5 μm
Neurites length per field, % Vehicle (10^−6 M, 12 hours): 137%
Neurites length per field, Mean (10^−6 M, 12 hours): 580.3 μm
Neurites length per field, % Vehicle (10^−6 M, 24 hours): 104%
Neurites length per field, Mean (10^−6 M, 24 hours): 224.8 μm
Neurites length per field, % Vehicle (10^−7 M, 6 hours): 138%
Neurites length per field, Mean (10^−7 M, 6 hours): 350.5 μm
Neurites length per field, % Vehicle (10^−7 M, 12 hours): 137%
Neurites length per field, Mean (10^−7 M, 12 hours): 956.7 μm
Neurites length per field, % Vehicle (10^−7 M, 24 hours): 126%
Neurites length per field, Mean (10^−7 M, 24 hours): 271.7 μm
Neurites length per field, % Vehicle (10^−8 M, 6 hours): 150%
Neurites length per field, Mean (10^−8 M, 6 hours): 382.4 μm
Neurites length per field, % Vehicle (10^−8 M, 12 hours): 179%
Neurites length per field, Mean (10^−8 M, 12 hours): 759.0 μm
Neurites length per field, % Vehicle (10^−8 M, 24 hours): 174%
Neurites length per field, Mean (10^−8 M, 24 hours): 374.6 μm
Neurites length per field, % Vehicle (10^−9 M, 6 hours): 188%
Neurites length per field, Mean (10^−9 M, 6 hours): 479.3 μm
Neurites length per field, % Vehicle (10^−9 M, 12 hours): 180%
Neurites length per field, Mean (10^−9 M, 12 hours): 764.9 μm
Neurites length per field, % Vehicle (10^−9 M, 24 hours): 123%
Neurites length per field, Mean (10^−9 M, 24 hours): 265.9 μm
